# Measured values from patent US7166472B2, “Method for the identification of agents that inhibit or promote cataracts and uses thereof” (The General Hospital Corporation, priority 2000, dated 2007).
# Substitutions are numbered along the chain they refer to.
# Assays:
# [1] = Cyclic voltammetry of kynurenine metabolites with Cu(II); assay type: physicochemical; settings: metabolite 100 μM, cupric chloride 25 μM, PBS pH 7.4
# Method: Cyclic Voltammetry—Cyclic voltammetry was performed at room temperature (22±2° C.) on ambient solutions using an EG&G PAR potentiostat, Model 273. The potentiostat was operated in Ramp Mode, generating a potential staircase waveform with a 0.25 mV step height. The potential window of +0.15 to −0.4V, in which Cu(I) is electroactive, but the metabolites are not, was scanned in both directions at a rate of 100 mV/sec. The current response was passed through a 5.3 Hz low pass filter. A minimum of three cycles were collected for each scan, ensuring the stability of the electrochemical response. The electrochemical cell consisted of an indium/tin oxide working electrode (Delta Technologies) with an active area of 0.32 cm^2, a platinum wire auxiliary electrode, and a Ag/AgCl (1 M KCl) reference electrode (Microelectrodes Inc.). Both the auxiliary and reference electrodes were positioned in the cell in close proximity to the working electrode. The working electrodes were pretreated with successive 10 minute sonications in Alconox (˜8 g/L), 95% ethanol, Milli-Q purified H2O (2×), and PBS (pH 7.4), followed by an overnight soak in PBS (pH 7.4). The ITO electrodes were subsequently “activated” immediately prior to use by successive cycling in PBS for three cycles in each of the following potential windows: +0.15 ? −0.4 V, +0.4 ? −0.4 V, and +1.0 ? −0.4 V. Cupric chloride (25 μM; Allied Chemical) was used as the Cu(II) source. Background voltammograms were obtained on each new electrode before testing the kynurenine pathway metabolites. PBS solutions of KYN, 3-HK, ANA, and 3-HAA (each at 100 μM) were separately scanned with and without added Cu(II) (25 μM). Each experiment also included a scan of Cu(II) (25 μM) in PBS without added test compound. All solutions were tested within minutes of being prepared. Each test was repeated to ensure the reproducibility of the results.
# The voltammograms in FIGS. 3A–3D compare 3-HK and 3-HAA to their corresponding non-phenolic analogs, kynurenine (KYN) and anthranilic acid (ANA), in aqueous solutions of Cu(II) at pH 7.4. […] At potentials above +0.15 V, the metabolites undergo direct irreversible oxidation, a reaction that is not considered further here. Cyclic voltammetry of Cu(II) in PBS yielded a current response at ≈−100 mV due to reduction of the metal ion (scan “b” in each panel).
# [2] = Thiobarbituric acid-reactive substance (TBARS) assay for hydroxyl radical; assay type: biochemical; settings: reaction with Cu(II)
# Source text: Although two Fenton chemistry substrates, hydrogen peroxide and reduced redox-active metal, are produced by 3-HK and 3-HAA, evidence of the hydroxyl radical was not detected using the thiobarbituric acid-reactive substance assay (Huang, X. et al., Biochem. 38:7609–7616 (1999)) (data not shown).
# [3] = target: T1, recombinant human αB-crystallin (Homo sapiens, UniProt P02511); test: Recombinant human αB-crystallin cross-linking (SDS-PAGE, silver stain); assay type: biochemical; settings: 5 days 37° C. dark
# T1 construct: gift of Dr. J. Liang, Brigham and Women's Hospital
# T1 sequence (P02511 1-175): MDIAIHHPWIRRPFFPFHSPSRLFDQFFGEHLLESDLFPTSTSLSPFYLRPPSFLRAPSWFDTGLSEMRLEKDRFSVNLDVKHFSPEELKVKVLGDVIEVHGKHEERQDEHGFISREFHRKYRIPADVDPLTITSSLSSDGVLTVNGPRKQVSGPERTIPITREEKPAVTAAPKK
# Method: Various solutions containing 3-HK (10 μM) or other kynurenine pathway metabolites (10 μM), Cu(II)-glycine (10 μM), Fe(III)-citrate (10 μM), and triethylenetetramine (TETA, 200 μM), were added in combinations as indicated. […] After incubation, aliquots of the total lens protein solutions were mixed with sample buffer containing 4% SDS and 5% β-mercaptoethanol, heated to 95° C. for 5 minutes, and loaded at 1 μg/lane on a 10–20% Tricine gel (Novex, San Diego, Calif.). […] For the experiments with recombinant αB-crystallin, aliquots of the protein solutions were mixed with sample running buffer containing NuPAGE sample buffer (Novex, San Diego, Calif.) and 10% β-mercaptoethanol, heated to 95° C. for 5 minutes, spun briefly, then loaded on a NuPAGE 4–12% Bis-Tris polyacrylamide gel at 375 ng/lane and electrophoresed with denaturing 3-(N-morpholino)propanesulfonic acid (MOPS)-SDS running buffer according to the manufacturer's recommendations.
# To exclude the effects of other lens proteins on the observed findings in FIG. 5, these interactions with purified recombinant human αB-crystallin were examined.
# [4] = Superoxide assay (dihydroethidium fluorometric); assay type: biochemical; settings: test compound 10 μM
# Method: Superoxide Assay—The fluorometric assay for superoxide is based upon the dihydroethidium (DHE, HYDROETHDNE™) method (Molecular Probes, Eugene, Oreg.) and used according to the manufacturer's instructions. DHE (1 mM) was freshly prepared in 100% argon-sparged DMSO. The reaction solutions were carried out in PBS, pH 7.4, under ambient gas conditions, in 96-well format plates and contained a test compound (KYN, 3-HK, 3-HAA, and ANA, each at 10 μM), DHE (100 μM), +/− Cu(II)-glycine (1 μM) and incubated at 37EC for 60 minutes. […] Abolition of the reading by co-incubation with superoxide dismutase (1000 U/ml) was used for establishing superoxide specificity. The fluorescent readings were recorded by a Packard FLUOROCOUNT™ fluorescent plate reader with a 510 nm excitation filter and 590 nm emission filter. Potassium superoxide dissolved in degassed DMSO was used as a positive control.
# α-crystallin = target: T2, α-crystallin (Bos taurus, UniProt P02470+P02510); test: α-Crystallin modification under longwave ultraviolet illumination; assay type: biochemical; settings: exposure of α-crystallin in the presence of longwave ultraviolet illumination
# T2 sequence (P02470 1-173): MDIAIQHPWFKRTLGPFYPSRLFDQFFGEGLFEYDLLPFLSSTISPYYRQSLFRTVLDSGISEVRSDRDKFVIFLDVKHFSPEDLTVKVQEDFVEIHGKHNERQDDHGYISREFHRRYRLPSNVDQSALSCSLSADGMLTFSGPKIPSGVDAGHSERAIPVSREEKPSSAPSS
# T2 sequence (P02510 1-175): T1 sequence (P02511 1-175) with T40A, F61I, T132A, V152A
# αB-crystallin = target: T3, αB-crystallin (Bos taurus, UniProt P02510); test: αB-crystallin cross-linking in total calf lens protein (Western blot); settings: metabolite 10 μM, five days 37° C. dark
# T3 sequence (P02510 1-175): T1 sequence (P02511 1-175) with T40A, F61I, T132A, V152A
compound,measurement,setting,value
"Nc1c(O)cccc1C(=O)CC(N)C(=O)O (stereo not drawn) [3-HK, 3-hydroxykynurenine]",Cu(II) reduction wave in presence of metabolite,[1],nearly abolished
same,evidence of the hydroxyl radical,[2],not detected
same,αB-crystallin cross-linking,[3]; metabolite 10 μM alone,apparent dimeric and higher order oligomers were observed
same,αB-crystallin cross-linking with Cu(II),[3]; metabolite 10 μM and Cu(II) 10 μM,monomeric and apparent dimeric αB-crystallin species were depleted and a prominent high molecular weight smear was observed
same,effect of Cu(II) on superoxide generation,[4]; Cu(II)-glycine 1 μM,did not promote
same,superoxide production,"[4]; ambient oxygen, dark, 60 minutes",negligible
same,capacity of altered α-crystallin to reduce metal and generate hydrogen peroxide,α-crystallin,dramatically enhanced capacity
same,αB-crystallin cross-linking in the presence of Cu(II),αB-crystallin; Cu(II) 10 μM,dramatically enhanced
same,αB-crystallin cross-linking,αB-crystallin; no added Cu(II),apparent dimers and higher order oligomers were observed
